Test results reported in patent US20150105252A1, “SUBSTITUTED PYRAZOLES AS HERBICIDES” (E I DU PONT DE NEMOURS AND COMPANY, priority 2013, published 2015).

Tests used:
pigweed [1] = assay: Test A preemergence; format: in vivo, Amaranthus retroflexus
In short: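 Greenhouse test in loam soil/sand blend; compounds formulated in non-phytotoxic solvent with surfactant, applied as preemergence directed soil spray or postemergence to plants 2–10 cm tall at one- to two-leaf stage. Injury rated visually versus untreated controls after approximately 10 days on a 0 (no effect) to 100 (complete control) scale.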

foxtail, giant = assay: Test C preemergence; format: in vivo, Setaria faberii; conditions: for Plant response rating (scale of 0 to 100), Foxtail, Giant: Preemergence; for Foxtail, Giant plant response rating / Plant response rating, Foxtail, Giant: preemergence; for Plant response rating, Foxtail, Giant: scale 0 to 100, 0 = no effect, 100 = complete control
Excerpt: (§1) Seeds of plant species selected from blackgrass (Alopecurus myosuroides), ryegrass, Italian (Italian ryegrass, Lolium multiflorum), wheat (winter wheat, Triticum aestivum), galium (catchweed bedstraw, Galium aparine), corn (Zea mays), crabgrass, large (large crabgrass, Digitaria sanguinalis), foxtail, giant (giant foxtail, Setaria faberii), johnsongrass (Sorghum halepense), lambsquarters (Chenopodium album), morningglory (Ipomoea coccinea), nutsedge, yellow (yellow nutsedge, Cyperus esculentus), pigweed (redroot pigweed, Amaranthus retroflexus), ragweed (common ragweed, Ambrosia elation), soybean (Glycine max), barnyardgrass (Echinochloa crus-galli), oilseed rape (Brassica napus), waterhemp (common waterhemp, Amaranthus rudis), oat, wild (wild oat, Avena fatua), kochia (Kochia scoparia), Surinam grass (Brachiaria decumbens), foxtail, green (green foxtail, Setaria viridis), goosegrass (Eleusine indica), bromegrass, downy (downy bromegrass, Bromus tectorum), nightshade (eastern black nightshade, Solanum ptycanthum), cocklebur (common cocklebur, Xanthium strumarium), cupgrass, woolly (woolly cupgrass, Eriochloa villosa), bermudagrass (Cynodon dactylon), sunflower, (common oilseed sunflower, Helianthus annuus), Russian thistle (Salsola kali), and velvetleaf (Abutilon theophrasti) were planted into a blend of loam soil and sand and treated preemergence with test chemicals formulated in a non-phytotoxic solvent mixture which included a surfactant.
(§2) At the same time, plants selected from these crop and weed species and also chickweed (common chickweed, Stellaria media), canarygrass (littleseed canarygrass, Phalaris minor), and deadnettle (henbit deadnettle, Lamium amplexicaule), were planted in pots containing Redi-Earth® planting medium (Scotts Company, 14111 Scottslawn Road, Marysville, Ohio 43041) comprising spaghnum peat moss, vermiculite, wetting agent and starter nutrients and treated with postemergence applications of test chemicals formulated in the same manner. Plants ranged in height from 2 to 18 cm (1- to 4-leaf stage) for postemergence treatments. Treated plants and controls were maintained in a greenhouse for 13 to 15 days, after which time all species were compared to controls and visually evaluated. Plant response ratings, summarized in Table C, are based on a scale of 0 to 100 where 0 is no effect and 100 is complete control. A dash (-) response means no test result.

pigweed [2] = assay: Test C preemergence; format: in vivo, Amaranthus retroflexus; conditions: for Plant response rating (scale of 0 to 100), Pigweed: Preemergence; for Pigweed plant response rating / Plant response rating, Pigweed: preemergence; for Plant response rating, Pigweed: scale 0 to 100, 0 = no effect, 100 = complete control
Excerpt: as §1, §2

ragweed [3] = assay: Test C preemergence; format: in vivo, Ambrosia elation; conditions: for Plant response rating (scale of 0 to 100), Ragweed: Preemergence; for Ragweed plant response rating / Plant response rating, Ragweed: preemergence; for Plant response rating, Ragweed: scale 0 to 100, 0 = no effect, 100 = complete control
Excerpt: as §1, §2

nutsedge, yellow = assay: Test C postemergence; format: in vivo, Cyperus esculentus; conditions: for Nutsedge, Yellow plant response rating: scale 0 to 100
Excerpt: as §1, §2

ragweed [4] = assay: Test C postemergence; format: in vivo, Ambrosia elation; conditions: postemergence; for Ragweed plant response rating: scale 0 to 100
Excerpt: as §1, §2

soybean = assay: Test C postemergence; format: in vivo, Glycine max; conditions: postemergence; for Soybean plant response rating: 62 g ai/ha, scale 0 to 100
Excerpt: as §1, §2

oat, wild = assay: Test C postemergence; format: in vivo, Avena fatua; conditions: for Oat, Wild plant response rating: scale 0 to 100
Excerpt: as §1, §2

kochia = assay: Test C postemergence; format: in vivo, Kochia scoparia; conditions: for Kochia plant response rating: scale 0 to 100
Excerpt: as §1, §2

barnyardgrass = assay: Test B flood; format: in vivo, Echinochloa crus-galli; conditions: 250 g ai/ha, visual rating on 0 to 100 scale (0 no effect, 100 complete control), 13 to 15 days
In short: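 Paddy-water application: seedlings at 2-leaf stage, flood depth 3 cm maintained for the test duration. Evaluation after 13–15 days in the greenhouse by eye relative to controls; 0–100 scale.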

oilseed rape = assay: Test C preemergence; format: in vivo, Brassica napus; conditions: preemergence
Excerpt: as §1, §2

[5] = Preemergence, 500 g ai/ha, 0 to 100 scale, 0 no effect, 100 complete control
[6] = preemergence, 125 g ai/ha, visual injury, 0 to 100 scale, approx. 10 days
[7] = 31 g ai/ha, scale 0 to 100 (0 no effect, 100 complete control), 13 to 15 days
[8] = 125 g ai/ha, scale 0 to 100, 0 is no effect, 100 is complete control
[9] = postemergence, 250 g ai/ha, scale 0 to 100 (0 no effect, 100 complete control)
[10] = postemergence, 62 g ai/ha, scale 0 to 100, 0 no effect, 100 complete control
[11] = postemergence, 125 g ai/ha, scale 0 to 100, 0 no effect, 100 complete control
[12] = 250 g ai/ha, scale 0 to 100 (0 no effect, 100 complete control)
[13] = 62 g ai/ha, scale 0 to 100, 0 no effect, 100 complete control
[14] = 125 g ai/ha, scale 0 to 100, 0 no effect, 100 complete control
[15] = 31 g ai/ha, visual rating, scale 0 to 100 (0 no effect, 100 complete control), 13 to 15 days
[16] = 62 g ai/ha, scale 0 to 100 (0 no effect, 100 complete control), 13 to 15 days
[17] = 250 g ai/ha, scale 0 to 100, 0 is no effect, 100 is complete control
[18] = Preemergence, 1000 g ai/ha, 0 to 100 scale, 0 no effect, 100 complete control

Compound	Plant response rating (scale of 0 to 100), Foxtail, Giant (foxtail, giant; 250 g ai/ha)	Foxtail, Giant plant response rating (foxtail, giant; [7])	Plant response rating, Foxtail, Giant (foxtail, giant; 62 g ai/ha, 13 to 15 days)	Foxtail, Giant plant response rating (foxtail, giant; [8])	Plant response rating (scale of 0 to 100), Pigweed (pigweed [2]; 250 g ai/ha)	Pigweed plant response rating (pigweed [2]; [7])	Nutsedge, Yellow plant response rating (nutsedge, yellow; Postemergence, 31 g ai/ha)	Plant response rating, Nutsedge, Yellow (nutsedge, yellow; [9])	Plant response rating, Nutsedge, Yellow (nutsedge, yellow; [11])	Plant response rating, Ragweed (ragweed [4]; [12])	Plant response rating, Ragweed (ragweed [4]; [14])	Soybean plant response rating (soybean)	Plant response rating, Soybean (soybean; [12])	Plant response rating, Soybean (soybean; [14])	Oat, Wild plant response rating (oat, wild; Postemergence, 31 g ai/ha)	Plant response rating, Oat, Wild (oat, wild; [9])	Plant response rating, Oat, Wild (oat, wild; [11])	Kochia plant response rating (kochia; Postemergence, 31 g ai/ha)	Plant response rating, Kochia (kochia; [9])	Plant response rating, Kochia (kochia; [11])	also measured
CCc1cc(C(=O)NOC(C)C)nn1Cc1cccc(OC(F)(F)F)c1 [Compound 70]	98	65	75	90	100	100	0	20	0	65	65	55	65	55	20	35	30	50	70	55	Pigweed plant response rating (pigweed [1]; [5]): 100; Pigweed plant response rating (pigweed [1]; [6]): 100; Plant response rating, Pigweed (pigweed [2]; 62 g ai/ha, 13 to 15 days): 100; Pigweed plant response rating (pigweed [2]; [8]): 100; Plant response rating (scale of 0 to 100), Ragweed (ragweed [3]; 250 g ai/ha): 40; Ragweed plant response rating (ragweed [3]; [7]): 0; Plant response rating, Ragweed (ragweed [3]; 62 g ai/ha, 13 to 15 days): 25; Ragweed plant response rating (ragweed [3]; [8]): 30; Plant response rating, Nutsedge, Yellow (nutsedge, yellow; [10]): 0; Plant response rating, Ragweed (ragweed [4]; [13]): 60; Plant response rating, Oat, Wild (oat, wild; [10]): 20; Plant response rating, Kochia (kochia; [10]): 55
O=C(NC1CC1)c1cc(CCF)n(Cc2ccnc(C(F)(F)F)c2)n1 [Compound 176]																					Pigweed plant response rating (0 to 100 scale) (pigweed [1]; preemergence, 125 g ai/ha, visual injury approx. 10 days after treatment): 100; Pigweed plant response rating (pigweed [1]; preemergence, 500 g ai/ha, visual injury after approx. 10 days, 0 to 100 scale (0 no effect, 100 complete control)): 100; Plant response rating, Barnyardgrass (barnyardgrass): 35; Foxtail, Giant plant response rating (foxtail, giant; [15]): 35; Foxtail, Giant plant response rating (foxtail, giant; [16]): 90; Plant response rating, Foxtail, Giant (foxtail, giant; 125 g ai/ha, 13 to 15 days): 100; Foxtail, Giant plant response rating (foxtail, giant; [17]): 100; Pigweed plant response rating (pigweed [2]; [15]): 100; Pigweed plant response rating (pigweed [2]; [16]): 100; Plant response rating, Pigweed (pigweed [2]; 125 g ai/ha, 13 to 15 days): 100; Pigweed plant response rating (pigweed [2]; [17]): 100; Ragweed plant response rating (ragweed [3]; [15]): 85; Ragweed plant response rating (ragweed [3]; [16]): 100; Plant response rating, Ragweed (ragweed [3]; 125 g ai/ha, 13 to 15 days): 100; Ragweed plant response rating (ragweed [3]; [17]): 95; Oilseed Rape plant response rating (oilseed rape; [15]): 90; Oilseed Rape plant response rating (oilseed rape; [16]): 90; Plant response rating, Oilseed Rape (oilseed rape; 125 g ai/ha, 13 to 15 days, scale 0 to 100, 0 = no effect, 100 = complete control): 95; Oilseed Rape plant response rating (oilseed rape; [17]): 100
Cc1cc(C(=O)NCC(F)(F)F)nn1Cc1ccnc(C(F)(F)F)c1 [Compound 74]	100	80	100	100	100	100	0	15	5	70		80	85	85	0	5	5	20	90	80	Pigweed plant response rating (pigweed [1]; [18]): 100; Plant response rating, Pigweed (pigweed [2]; 62 g ai/ha, 13 to 15 days): 100; Pigweed plant response rating (pigweed [2]; [8]): 100; Plant response rating (scale of 0 to 100), Ragweed (ragweed [3]; 250 g ai/ha): 90; Ragweed plant response rating (ragweed [3]; [7]): 30; Plant response rating, Ragweed (ragweed [3]; 62 g ai/ha, 13 to 15 days): 60; Ragweed plant response rating (ragweed [3]; [8]): 80; Nutsedge, Yellow plant response rating (nutsedge, yellow; postemergence, 62 g ai/ha): 5; Ragweed plant response rating (ragweed [4]; 62 g ai/ha): 45; Oat, Wild plant response rating (oat, wild; postemergence, 62 g ai/ha): 0; Kochia plant response rating (kochia; postemergence, 62 g ai/ha): 50
CCCNC(=O)c1cc(CC)n(Cc2cccc(OC(F)(F)F)c2)n1 [Compound 27]							0	0	0	10	5	65	75	70	10	15	15	35	95	80	Pigweed plant response rating (pigweed [1]; [18]): 90; Plant response rating, Nutsedge, Yellow (nutsedge, yellow; [10]): 0; Plant response rating, Ragweed (ragweed [4]; [13]): 0; Plant response rating, Oat, Wild (oat, wild; [10]): 10; Plant response rating, Kochia (kochia; [10]): 70
CCONC(=O)c1cc(CC)n(Cc2cccc(OC(F)(F)F)c2)n1 [Compound 72]	100	65	80	85	100	100	0	0	0	35	20	20	40	35	5	35	20	10	55	40	Pigweed plant response rating (pigweed [1]; [5]): 100; Pigweed plant response rating (pigweed [1]; [6]): 100; Plant response rating, Pigweed (pigweed [2]; 62 g ai/ha, 13 to 15 days): 100; Pigweed plant response rating (pigweed [2]; [8]): 100; Plant response rating (scale of 0 to 100), Ragweed (ragweed [3]; 250 g ai/ha): 60; Ragweed plant response rating (ragweed [3]; [7]): 0; Plant response rating, Ragweed (ragweed [3]; 62 g ai/ha, 13 to 15 days): 50; Ragweed plant response rating (ragweed [3]; [8]): 55; Nutsedge, Yellow plant response rating (nutsedge, yellow; postemergence, 62 g ai/ha): 0; Ragweed plant response rating (ragweed [4]; 62 g ai/ha): 5; Oat, Wild plant response rating (oat, wild; postemergence, 62 g ai/ha): 5; Kochia plant response rating (kochia; postemergence, 62 g ai/ha): 25
CCc1cc(C(=O)NCC(F)(F)F)nn1Cc1cccc(OC(F)(F)F)c1 [Compound 20]							0	0	0	25	15	45	75	60	15	20	20	90	98	98	Pigweed plant response rating (pigweed [1]; [18]): 100; Plant response rating, Nutsedge, Yellow (nutsedge, yellow; [10]): 0; Plant response rating, Ragweed (ragweed [4]; [13]): 15; Plant response rating, Oat, Wild (oat, wild; [10]): 15; Plant response rating, Kochia (kochia; [10]): 95
